Measurements reported in ChEMBL document CHEMBL4251560, “The Novel 4-Phenyl-2-Phenoxyacetamide Thiazoles modulates the tumor hypoxia leading to the crackdown of neoangiogenesis and evoking the cell death” (Eur J Med Chem, 2018).
Activity calls are given as the source filed them. No cut-off for these calls is given here.

How the values were obtained:
Ehrlich [1] = assay: Antitumor activity against mouse EAC cells implanted in ip dosed Swiss albino mouse assessed as reduction in cell density administered every alternate day for 3 days; type: functional
Ehrlich [2] = assay: Antitumor activity against mouse EAC cells implanted in Swiss albino mouse assessed as decrease in tumor volume at 50 mg/kg, ip administered every alternate day for 3 days; type: functional; conditions: 72 h, read-out: TGI
Mus musculus [3] = assay: Toxicity in Swiss albino mouse implanted with mouse EAC cells assessed as induction of adverse effect on spleen at 25 to 50 mg/kg, ip administered every alternate day for 3 days; type: organism-based; conditions: in vivo, 72 h
Ehrlich [4] = assay: Antitumor activity against mouse EAC solid tumor implanted in Swiss albino mouse assessed as reduction in tumor growth at 25 mg/kg, ip administered every alternate day for 3 days by animal morphology analysis; type: functional, organism-based
MDA-MB-468 [5] = assay: Cytotoxicity against human MDA-MB-468 cells assessed as reduction in cell viability after 48 hrs by MTT assay; type: functional, cell-based; conditions: MDA-MB-468, 48 h
Ehrlich [6] = assay: In vivo induction of apoptosis in mouse EAC cells implanted in Swiss albino mouse assessed as induction of EAC cell irregular shape at 25 to 50 mg/kg, ip administered every alternate day for 3 days by Geimsa staining-based microscopic analysis; type: functional, organism-based
Mus musculus [7] = assay: In vivo induction of apoptosis in mouse EAC cells implanted in Swiss albino mouse assessed as DNA fragmentation at 25 to 50 mg/kg, ip administered every alternate day for 3 days by DNA fragmentation assay; type: functional, organism-based
Mus musculus [8] = assay: In vivo inhibition of VEGF secretion in Swiss albino mouse EAC cells implanted with mouse EAC at 25 to 50 mg/kg, ip administered every alternate day for 3 days by ELISA; type: functional, organism-based
MCF7 [9] = assay: Cytotoxicity against human MCF7 cells assessed as reduction in cell viability after 48 hrs by trypan blue exclusion assay; type: functional, cell-based; conditions: MCF7, 48 h
Ehrlich [10] = assay: Antitumor activity against mouse EAC solid tumor implanted in ip dosed Swiss albino mouse assessed as reduction in tumor volume administered every alternate day for 3 days; type: functional, organism-based
Ehrlich [11] = assay: In vivo antiangiogenic activity in mouse EAC implanted in Swiss albino mouse assessed as regression of tumor-induced angiogenesis in peritoneum at 25 mg/kg, ip administered every alternate day for 3 days; type: functional; conditions: 72 h
A549 [12] = assay: Cytotoxicity against human A549 cells assessed as reduction in cell viability after 48 hrs by MTT assay; type: functional, cell-based; conditions: A549, 48 h
Mus musculus [13] = assay: In vivo inhibition of HIF-1alpha expression in Swiss albino mouse EAC cells implanted with mouse EAC at 25 to 50 mg/kg, ip administered every alternate day for 3 days by immunoblot analysis; type: functional, organism-based
A549 [14] = assay: Cytotoxicity against human A549 cells assessed as reduction in cell viability after 48 hrs by trypan blue exclusion assay; type: functional, cell-based; conditions: A549, 48 h
Mus musculus [15] = assay: Up-regulation of MDM2 protein expression in Swiss albino mouse EAC cells implanted with mouse EAC at 25 to 50 mg/kg, ip administered every alternate day for 3 days by immunoblot analysis; type: functional, organism-based
Cornea = assay: Antiangiogenic activity in cornea of alkali injured rat eye assessed as induction of restraining of vessel sprouting applied to centre of cornea for 40 secs post alkali injury; type: functional
Chorioallantoic membrane = assay: In vivo antiangiogenic activity in chicken chorioallantoic membrane assessed as inhibition of recombinant VEGF165-induced vessel formation after 3 days; type: functional, Gallus gallus
Ehrlich [16] = assay: Cytotoxicity against mouse EAC cells assessed as reduction in cell viability after 48 hrs by MTT assay; type: functional, cell-based
Ehrlich [17] = assay: In vivo induction of apoptosis in mouse EAC cells implanted in Swiss albino mouse assessed as EAC cell shrinkage at 25 to 50 mg/kg, ip administered every alternate day for 3 days by Geimsa staining-based microscopic analysis; type: functional, organism-based
Ehrlich [18] = assay: Antitumor activity against mouse EAC cells implanted in ip dosed Swiss albino mouse assessed as decrease in tumor volume administered every alternate day for 3 days; type: functional, organism-based
Ehrlich [19] = assay: In vivo induction of apoptosis in mouse EAC cells implanted in Swiss albino mouse assessed as EAC cell membrane blebbing at 25 to 50 mg/kg, ip administered every alternate day for 3 days by Geimsa staining-based microscopic analysis; type: functional, organism-based
Ehrlich [20] = assay: Cytotoxicity against mouse EAC cells assessed as reduction in cell viability after 48 hrs by trypan blue exclusion assay; type: functional, cell-based
[21] = Cytotoxicity against mouse DLA cells assessed as reduction in cell viability after 48 hrs by trypan blue exclusion assay; type: functional, cell-based
Mus musculus [22] = assay: Up-regulation of p53 protein expression in Swiss albino mouse EAC cells implanted with mouse EAC at 25 to 50 mg/kg, ip administered every alternate day for 3 days by immunoblot analysis; type: functional, organism-based
Mus musculus [23] = assay: Toxicity in Swiss albino mouse implanted with mouse EAC cells assessed as induction of adverse effect on liver at 25 to 50 mg/kg, ip administered every alternate day for 3 days; type: organism-based; conditions: in vivo, 72 h
Ehrlich [24] = assay: Antitumor activity against mouse EAC cells implanted in Swiss albino mouse assessed as decrease in tumor volume at 25 mg/kg, ip administered every alternate day for 3 days; type: functional; conditions: 72 h, read-out: TGI
Ehrlich [25] = assay: Antitumor activity against mouse EAC cells implanted in ip dosed Swiss albino mouse assessed as reduction in ascite volume administered every alternate day for 3 days; type: functional
Ehrlich [26] = assay: In vivo antiangiogenic activity in mouse EAC implanted in Swiss albino mouse assessed as regression of tumor-induced angiogenesis in peritoneum at 5 mg/kg, ip administered every alternate day for 3 days; type: functional; conditions: 72 h
Ehrlich [27] = assay: Antitumor activity against mouse EAC solid tumor implanted in Swiss albino mouse assessed as reduction in tumor mass at 25 mg/kg, ip administered every alternate day for 3 days; type: functional
[28] = Cytotoxicity against mouse DLA cells assessed as reduction in cell viability after 48 hrs by MTT assay; type: functional, cell-based
Ehrlich [29] = assay: Antitumor activity against mouse EAC cells implanted in Swiss albino mouse assessed as mouse survival at 25 to 50 mg/kg, ip administered every alternate day for 3 days; type: functional
Ehrlich [30] = assay: In vivo antiangiogenic activity in mouse EAC implanted in Swiss albino mouse administered ip assessed as regression of tumor-induced angiogenesis in peritoneum administered every alternate day for 3 days; type: functional, organism-based
MDA-MB-468 [31] = assay: Cytotoxicity against human MDA-MB-468 cells assessed as reduction in cell viability after 48 hrs by trypan blue exclusion assay; type: functional, cell-based; conditions: MDA-MB-468, 48 h
MCF7 [32] = assay: Cytotoxicity against human MCF7 cells assessed as reduction in cell viability after 48 hrs by MTT assay; type: functional, cell-based; conditions: MCF7, 48 h

Cc1ccc(-c2csc(NC(=O)COc3ccc(F)cc3F)n2)cc1
fold change (FC) (Ehrlich [1]): 6
inhibition in vivo at 50 mg/kg (Ehrlich [2]): 80.2%
Activity (Mus musculus [3]): Non-Toxic
TGI (Ehrlich [4]): Active
IC50 (MDA-MB-468 [5]): 10.5 µM
Activity (Ehrlich [6]): Active
Activity (Mus musculus [7]): Active
inhibition (Mus musculus [8]): Active
IC50 (MCF7 [9]): 14 µM
Activity (Ehrlich [10]): Dose-dependent effect
inhibition in vivo at 25 mg/kg (Ehrlich [11]): 30%
IC50 (A549 [12]): 13.9 µM
inhibition (Mus musculus [13]): Active
IC50 (A549 [14]): 13.2 µM
Activity (Mus musculus [15]): Active
Activity (Cornea): 60%
inhibition (INH) (Chorioallantoic membrane): 80%
IC50 (Ehrlich [16]): 14.9 µM
Activity (Ehrlich [17]): Active
Activity (Ehrlich [18]): Dose-dependent effect
Activity (Ehrlich [19]): Active
IC50 (Ehrlich [20]): 14 µM
IC50 [21]: 13.9 µM
Activity (Mus musculus [22]): Active
Activity (Mus musculus [23]): Non-Toxic
inhibition in vivo at 25 mg/kg (Ehrlich [24]): 74.3%
Activity (Ehrlich [25]): Dose-dependent effect
fold change (FC) (Ehrlich [25]): 3 - 4
inhibition in vivo at 5 mg/kg (Ehrlich [26]): 10%
Activity (Ehrlich [27]): <=10 g
IC50 [28]: 13.4 µM
Survival (Ehrlich [29]): >=23 - 25 day
Activity (Ehrlich [30]): Dose-dependent effect
IC50 (MDA-MB-468 [31]): 10.2 µM
IC50 (MCF7 [32]): 14.5 µM
